Laboratory results: patent US20120028278A1, “CELL LINES EXPRESSING GUANYLATE CYCLASE-C AND METHODS OF USING THEM” (CHROMOCELL CORPORATION, priority 2009, published 2012)
Where a SMILES comes first, the peptide text is derived from it. Bridges are numbered along the chain shown (N, C = ends).

Key:
[1] = biological target: T1, human GC-C (Homo sapiens, UniProt P25092, F281L); assay: Direct Cyclic GMP Enzyme Immunoassay Kit, cGMP in the produced GC-C-expressing cell line (guanylin dose-response and comparison with parental cells); type: cell-based
T1 construct: expressed in transfected cells; CMV promoter
Method: Populations of cells were tested using functional criteria. The Direct Cyclic GMP Enzyme Immunoassay Kit (Cat. 900-014; AssayDesigns, Inc.) was used according to manufacturer's instructions: (http://www.assaydesigns.com/objects/catalog//product/extras/900-014.pdf). Cells were tested at 4 different densities in 96- or 384-well plates and responses were analyzed. The following conditions were used for the GC-C-expressing cell lines of the invention:
(§1) Cells were washed twice with serum-free medium and incubated with 1 mM IBMX for 30 minutes. Desired activators (i.e., guanylin, 0.001-40 μM) were then added to the cells and incubated for 30-40 minutes. Supernatant was removed, and the cells were washed with TBS buffer. […]. This was followed by lysis with 0.1N HCl and a freeze/thaw cycle at −20° C./room temperature. Defrosted lysates (samples were spun in Eppendorf tubes at 10,000 rpm) were centrifuged to pellet cell debris. The cleared supernatant lysate was then transferred to ELISA plates.
The cGMP level in the produced GC-C-expressing cell line treated with 100 nM guanylin was also compared to that of parental cell line control samples not expressing GC-C (not shown) using the Direct Cyclic GMP Enzyme Immunoassay Kit (Cat. 900-014; AssayDesigns, Inc.).
For guanylin dose-response experiments, cells of the produced GC-C-expressing cell line, plated at densities of 20,000, 40,000, 60,000, 80,000, 120,000 and 160,000 cells/well in a 96-well plate, were challenged with increasing concentration of guanylin for 30 minutes (see FIG. 2). […] 140(4):1800-1806 (1999)), indicating the potency of the clone.

[2] = test system: other cell lines; conditions: low concentrations of guanylin, Forte et al., Endocr. 140(4):1800-1806 (1999); cited from earlier work
[3] = biological target: T1, human GC-C; assay: competitive ELISA for detection of cGMP in the produced GC-C-expressing cell line; type: cell-based; conditions: 100 nM guanylin; cell lysate from GC-C-expressing cell line; FIG. 1
Method: A competitive ELISA for detection of cGMP was used to characterize native GC-C function in the produced GC-C-expressing cell line. Cells expressing GC-C were maintained under standard cell culture conditions in DMEM supplemented with 10% fetal bovine serum, glutamine and HEPES and grown in T175 cm flasks. For the ELISA, the cells were plated into coated 96-well plates (poly-D-lysine).
as §1
All of the following steps were performed at room temperature, unless otherwise indicated. ELISA plates were coated with anti-IgG antibodies in coating buffer (Na-carbonate/bi-carbonate buffer, 0.1 M final, pH 9.6) overnight at 4° C. […] The absorbance was then read at 405 nm on a SAFIRE^2™ plate reader (Tecan).
Maximum absorbance was seen when no cell lysate was used in the ELISA (Control).

[4] = biological target: human guanylate cyclase-C (GC-C) (human) (UniProt P25092); assay: cell-based or functional assay
human guanylate cyclase-C (GC-C) (human), sequence (P25092 24-1073 F281L limits assumed): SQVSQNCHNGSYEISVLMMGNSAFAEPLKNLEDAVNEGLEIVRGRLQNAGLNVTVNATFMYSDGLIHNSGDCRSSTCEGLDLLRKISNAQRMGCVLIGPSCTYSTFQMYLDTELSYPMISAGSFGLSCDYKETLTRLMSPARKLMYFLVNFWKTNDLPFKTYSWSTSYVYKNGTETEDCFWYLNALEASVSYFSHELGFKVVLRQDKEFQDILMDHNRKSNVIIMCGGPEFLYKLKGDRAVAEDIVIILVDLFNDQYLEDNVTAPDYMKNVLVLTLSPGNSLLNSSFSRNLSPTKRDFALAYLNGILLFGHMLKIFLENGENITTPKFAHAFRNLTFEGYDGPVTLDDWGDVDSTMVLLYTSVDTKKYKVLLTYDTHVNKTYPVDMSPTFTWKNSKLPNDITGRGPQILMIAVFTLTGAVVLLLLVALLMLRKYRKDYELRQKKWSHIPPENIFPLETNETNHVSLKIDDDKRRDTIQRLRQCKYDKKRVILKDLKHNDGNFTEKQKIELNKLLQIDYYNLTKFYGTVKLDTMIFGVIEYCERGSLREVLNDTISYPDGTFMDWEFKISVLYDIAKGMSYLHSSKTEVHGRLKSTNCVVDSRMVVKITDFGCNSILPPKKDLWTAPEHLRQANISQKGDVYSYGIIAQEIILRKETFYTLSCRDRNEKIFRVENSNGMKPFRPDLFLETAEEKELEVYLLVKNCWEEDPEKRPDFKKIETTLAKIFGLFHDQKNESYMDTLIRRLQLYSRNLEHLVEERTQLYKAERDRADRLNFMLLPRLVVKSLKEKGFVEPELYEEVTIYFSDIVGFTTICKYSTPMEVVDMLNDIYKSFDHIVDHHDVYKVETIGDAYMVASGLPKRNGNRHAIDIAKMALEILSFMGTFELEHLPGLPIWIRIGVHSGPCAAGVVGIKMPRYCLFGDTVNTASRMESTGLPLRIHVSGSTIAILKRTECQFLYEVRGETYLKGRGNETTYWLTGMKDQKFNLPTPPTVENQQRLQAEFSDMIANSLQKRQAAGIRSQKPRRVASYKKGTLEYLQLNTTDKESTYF

T1 sequence (P25092 24-1073 F281L): as the sequence (P25092 24-1073 F281L limits assumed) above

absorbance (corresponding to cGMP levels) vs parental cells not expressing GC-C ([1]; 100 nM guanylin, compared with parental cells treated and untreated with guanylin) | EC50 ([1]; produced GC-C-expressing 293T cell line, guanylin 30 minutes, non-linear regression, GraphPad Prism 5.0) [nM] | level of cGMP ([1]; produced GC-C-expressing cell line treated with low concentrations of guanylin) [pmol/mL] | absorbance (corresponding to cGMP levels) vs control without cell lysate [3] | EC50 of guanylin dose-response, cellular cGMP level (absorbance, Direct Cyclic GMP Enzyme Immunoassay Kit) [4] [nM] | level of cGMP in the GC-C-expressing cell line treated with low concentrations of guanylin [4] [pmol/mL] | Molecule | level of cGMP previously reported [2] [pmol/mL]
greater reduction in absorbance | ~1.1 | 6 | Reduction in absorbance | – | – | CC[C@H](C)[C@@H]1NC(=O)[C@H](CCC(=O)O)NC(=O)[C@@H](NC(=O)[C@@H](NC(=O)CNC(=O)[C@@H]2CCCN2)[C@@H](C)O)CSSC[C@@H]2NC(=O)[C@H](C)NC(=O)[C@H](C)NC(=O)[C@H](Cc3ccc(O)cc3)NC(=O)[C@H](C)NC(=O)[C@H](CSSC[C@@H](C(=O)O)NC(=O)CNC(=O)[C@H]([C@@H](C)O)NC2=O)NC1=O [guanylin] (H-PGTCEICAYAACTGC-OH; disulfide 4-12, 7-15 (inferred); N-terminus and C-terminus assumed) | 3.5
– | – | – | – | 1.1 | 6 | guanylin (peptide) | –
